{
  "source": "ChEMBL document CHEMBL1201862",
  "about": "“PubChem BioAssay data set” (2004)",
  "test_in_all_cases": "NCI tumour cell line growth inhibition, 48 h",
  "key": {"786-0": {"system": "786-0"}, "A549": {"system": "A549"}, "ACHN": {"system": "ACHN"}, "BT-549": {"system": "BT-549"}, "CAKI-1": {"system": "CAKI-1"}, "CCRF-CEM": {"system": "CCRF-CEM"}, "COLO 205": {"system": "COLO 205"}, "DU-145": {"system": "DU-145"}, "EKVX": {"system": "EKVX"}, "HCC 2998": {"system": "HCC 2998"}, "HCT-116": {"system": "HCT-116"}, "HCT-15": {"system": "HCT-15"}, "HL-60": {"system": "HL-60"}, "HOP-62": {"system": "HOP-62"}, "HOP-92": {"system": "HOP-92"}, "HT-29": {"system": "HT-29"}, "Hs-578T": {"system": "Hs-578T"}, "IGROV-1": {"system": "IGROV-1"}, "K562": {"system": "K562"}, "KM12": {"system": "KM12"}, "LOX IMVI": {"system": "LOX IMVI"}, "M14": {"system": "M14"}, "MCF7": {"system": "MCF7"}, "MDA-MB-231": {"system": "MDA-MB-231"}, "MDA-MB-435": {"system": "MDA-MB-435"}, "MDA-N": {"system": "MDA-N"}, "MOLT-4": {"system": "MOLT-4"}, "Malme-3M": {"system": "Malme-3M"}, "NCI-H226": {"system": "NCI-H226"}, "NCI-H23": {"system": "NCI-H23"}, "NCI-H460": {"system": "NCI-H460"}, "NCI-H522": {"system": "NCI-H522"}, "NCI/ADR-RES": {"system": "NCI/ADR-RES"}, "OVCAR-3": {"system": "OVCAR-3"}, "OVCAR-4": {"system": "OVCAR-4"}, "OVCAR-5": {"system": "OVCAR-5"}, "OVCAR-8": {"system": "OVCAR-8"}, "PC-3": {"system": "PC-3"}, "RPMI-8226": {"system": "RPMI-8226"}, "RXF 393": {"system": "RXF 393"}, "SF-268": {"system": "SF-268"}, "SF-295": {"system": "SF-295"}, "SF-539": {"system": "SF-539"}, "SK-MEL-28": {"system": "SK-MEL-28"}, "SK-MEL-2": {"system": "SK-MEL-2"}, "SK-MEL-5": {"system": "SK-MEL-5"}, "SK-OV-3": {"system": "SK-OV-3"}, "SN12C": {"system": "SN12C"}, "SNB-19": {"system": "SNB-19"}, "SNB-75": {"system": "SNB-75"}, "SR": {"system": "SR"}, "SW-620": {"system": "SW-620"}, "T47D": {"system": "T47D"}, "TK-10": {"system": "TK-10"}, "U-251": {"system": "U-251"}, "UACC-257": {"system": "UACC-257"}, "UACC-62": {"system": "UACC-62"}, "UO-31": {"system": "UO-31"}},
  "note": "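1) Cells in 96-well plates. 2) Compound, 48 h, 5 concentrations. 3) Linear interpolation between surrounding doses. 4) Unreached endpoint = highest concentration. At the GI50, growth is halved.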 Activity calls are given as the source filed them. Cut-off read from the data, not from the text of the source: active = GI50 up to about 1.1 µM and inactive = higher.",
  "data": [
    {"smiles": "COc1cccc(C(C#N)NC23CC4CC(CC(C4)C2)C3)c1", "note": "(stereo not drawn)", "values": [
      {"measurement": "GI50", "setting": "786-0", "value": "> 100 µM (inactive)"},
      {"measurement": "GI50", "setting": "A549", "value": "> 100 µM (inactive)"},
      {"measurement": "GI50", "setting": "ACHN", "value": "> 100 µM (inactive)"},
      {"measurement": "GI50", "setting": "BT-549", "value": "> 100 µM (inactive)"},
      {"measurement": "GI50", "setting": "CAKI-1", "value": "> 100 µM (inactive)"},
      {"measurement": "GI50", "setting": "CCRF-CEM", "value": "> 100 µM (inactive)"},
      {"measurement": "GI50", "setting": "COLO 205", "value": "> 100 µM (inactive)"},
      {"measurement": "GI50", "setting": "DU-145", "value": "> 100 µM (inactive)"},
      {"measurement": "GI50", "setting": "EKVX", "value": "85.5 µM (inactive)"},
      {"measurement": "GI50", "setting": "HCC 2998", "value": "> 100 µM (inactive)"},
      {"measurement": "GI50", "setting": "HCT-116", "value": "> 100 µM (inactive)"},
      {"measurement": "GI50", "setting": "HCT-15", "value": "> 100", "unit": "µM"},
      {"measurement": "GI50", "setting": "HL-60", "value": "> 100 µM (inactive)"},
      {"measurement": "GI50", "setting": "HOP-62", "value": "> 100 µM (inactive)"},
      {"measurement": "GI50", "setting": "HOP-92", "value": "> 100 µM (inactive)"},
      {"measurement": "GI50", "setting": "HT-29", "value": "> 100 µM (inactive)"},
      {"measurement": "GI50", "setting": "Hs-578T", "value": "> 100 µM (inactive)"},
      {"measurement": "GI50", "setting": "IGROV-1", "value": "> 100 µM (inactive)"},
      {"measurement": "GI50", "setting": "K562", "value": "> 100 µM (inactive)"},
      {"measurement": "GI50", "setting": "KM12", "value": "> 100 µM (inactive)"},
      {"measurement": "GI50", "setting": "LOX IMVI", "value": "> 100 µM (inactive)"},
      {"measurement": "GI50", "setting": "M14", "value": "> 100 µM (inactive)"},
      {"measurement": "GI50", "setting": "MCF7", "value": "> 100 µM (inactive)"},
      {"measurement": "GI50", "setting": "MDA-MB-231", "value": "> 100 µM (inactive)"},
      {"measurement": "GI50", "setting": "MDA-MB-435", "value": "> 100 µM (inactive)"},
      {"measurement": "GI50", "setting": "MDA-N", "value": "> 100 µM (inactive)"},
      {"measurement": "GI50", "setting": "MOLT-4", "value": "> 100 µM (inactive)"},
      {"measurement": "GI50", "setting": "Malme-3M", "value": "> 100 µM (inactive)"},
      {"measurement": "GI50", "setting": "NCI-H226", "value": "> 100 µM (inactive)"},
      {"measurement": "GI50", "setting": "NCI-H23", "value": "> 100 µM (inactive)"},
      {"measurement": "GI50", "setting": "NCI-H460", "value": "> 100 µM (inactive)"},
      {"measurement": "GI50", "setting": "NCI-H522", "value": "> 100 µM (inactive)"},
      {"measurement": "GI50", "setting": "NCI/ADR-RES", "value": "> 100 µM (inactive)"},
      {"measurement": "GI50", "setting": "OVCAR-3", "value": "> 100 µM (inactive)"},
      {"measurement": "GI50", "setting": "OVCAR-4", "value": "> 100 µM (inactive)"},
      {"measurement": "GI50", "setting": "OVCAR-5", "value": "> 100 µM (inactive)"},
      {"measurement": "GI50", "setting": "OVCAR-8", "value": "> 100 µM (inactive)"},
      {"measurement": "GI50", "setting": "PC-3", "value": "> 100 µM (inactive)"},
      {"measurement": "GI50", "setting": "RPMI-8226", "value": "> 100 µM (inactive)"},
      {"measurement": "GI50", "setting": "RXF 393", "value": "> 100 µM (inactive)"},
      {"measurement": "GI50", "setting": "SF-268", "value": "> 100 µM (inactive)"},
      {"measurement": "GI50", "setting": "SF-295", "value": "> 100 µM (inactive)"},
      {"measurement": "GI50", "setting": "SF-539", "value": "> 100 µM (inactive)"},
      {"measurement": "GI50", "setting": "SK-MEL-28", "value": "> 100 µM (inactive)"},
      {"measurement": "GI50", "setting": "SK-MEL-2", "value": "> 100 µM (inactive)"},
      {"measurement": "GI50", "setting": "SK-MEL-5", "value": "> 100 µM (inactive)"},
      {"measurement": "GI50", "setting": "SK-OV-3", "value": "> 100 µM (inactive)"},
      {"measurement": "GI50", "setting": "SN12C", "value": "> 100 µM (inactive)"},
      {"measurement": "GI50", "setting": "SNB-19", "value": "> 100 µM (inactive)"},
      {"measurement": "GI50", "setting": "SNB-75", "value": "> 100 µM (inactive)"},
      {"measurement": "GI50", "setting": "SR", "value": "> 100 µM (inactive)"},
      {"measurement": "GI50", "setting": "SW-620", "value": "> 100 µM (inactive)"},
      {"measurement": "GI50", "setting": "T47D", "value": "> 100 µM (inactive)"},
      {"measurement": "GI50", "setting": "TK-10", "value": "> 100 µM (inactive)"},
      {"measurement": "GI50", "setting": "U-251", "value": "> 100 µM (inactive)"},
      {"measurement": "GI50", "setting": "UACC-257", "value": "> 100 µM (inactive)"},
      {"measurement": "GI50", "setting": "UACC-62", "value": "> 100 µM (inactive)"},
      {"measurement": "GI50", "setting": "UO-31", "value": "> 100 µM (inactive)"}
    ]}
  ]
}
